This is an account of results in patent US9023864B2, “Indole derivatives as CRTH2 receptor antagonists” (Merck Sharp & Dohme Corp., priority 2009, dated 2015).

The test has as its target T1, hCRTH2 (Homo sapiens, UniProt Q9Y5Y4).
T1 construct: expressed in transfected cells; host or cells: HEK cell line expressing hCRTH2 (HEK-hCRTH2); membranes
T1 sequence (Q9Y5Y4 1-395): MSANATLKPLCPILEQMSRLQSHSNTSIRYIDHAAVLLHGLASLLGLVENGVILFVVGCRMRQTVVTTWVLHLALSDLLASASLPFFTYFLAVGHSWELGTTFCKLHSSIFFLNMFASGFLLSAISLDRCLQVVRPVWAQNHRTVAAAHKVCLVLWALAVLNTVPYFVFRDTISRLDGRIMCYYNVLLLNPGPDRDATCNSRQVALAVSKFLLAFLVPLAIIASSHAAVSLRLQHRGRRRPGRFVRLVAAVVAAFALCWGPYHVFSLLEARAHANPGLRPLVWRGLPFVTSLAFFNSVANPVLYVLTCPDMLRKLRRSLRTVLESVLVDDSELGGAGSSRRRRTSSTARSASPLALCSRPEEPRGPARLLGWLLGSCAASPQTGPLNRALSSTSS
Briefly: Radioligand binding assay ([3H]PGD2 competition, membranes from HEK-hCRTH2 cell line). The settings on record: 0.7 nM [3H]PGD2, membrane protein from HEK-hCRTH2 cell line, 60 min at room temperature; values given as ranges. The method, then: Radioligand Binding Assay.
Radioligand binding assays were performed at room temperature in 10 mM HEPES/KOH pH 7.4, 1 mM EDTA containing 10 mM MnCl2 and 0.7 nM [^3H]PGD2 (NEN, 171 Ci mmol^−1), in a final volume of 0.2 ml. Competing ligands were diluted in dimethylsulfoxide (Me2SO) that was kept constant at 1% (v/v) of the final incubation volume. The reaction was initiated by the addition of 8-20 μg of membrane protein prepared from a HEK-hCRTH2 cell line. Total and non-specific binding were determined in the absence and the presence of 10 μM PGD2, respectively. Under these conditions, specific binding (total minus non-specific) of the radioligand to the receptor reached equilibrium within 50 min and was stable up to 180 min. The reaction was routinely conducted for 60 min at room temperature and terminated by rapid filtration through prewetted Unifilters GF/C (Packard), using a Tomtec MachIII semi-automated harvester (for HEK-hCRTH2). The filters were then washed with 4 ml of the same buffer and residual radioligand bound to the filter was determined by liquid scintillation counting following equilibration in 25 μl Ultima Gold F™ (Unifilter) (Packard). The Ki (in nM) values for representative compounds of the present invention are as follows: ≦5: Examples 3.1, 5.1, 6.1, 7.1, 8.1/8A, 9.1, 26, 27.1, 28.1, 29.1, 30, 31.1, 31.3, 32.1, 32.4, 33.1, 34.1, 36.1, 38.1, 39, 40, 41; >5 and ≦10: Examples, 4, 5.3, 29.2; >10 and ≦50: Examples 1, 10, 14, 21, 22, 25, 31.4, 32.3, 35, 36.2, 37; >50 and ≦100: Examples 2, 5.4, 6.2, 27.2, 28.2; >100: Examples 3.2, 5.2, 7.2, 8.2, 9.2, 11, 12, 13, 15, 16, 17, 18, 19, 20, 23, 24, 31.2, 32.2, 33.2, 34.2, 38.2.

`O=C(O)Cc1c2n(c3c(F)cccc13)CC(n1nncc1Cc1ccc(F)c(F)c1)CC2` (single isomer, unassigned) [Example 33.1, {7-[5-(3,4-difluorobenzyl)-1H-1,2,3-triazol-1-yl]-4-fluoro-6,7,8,9-tetrahydropyrido[1,2-a]-indol-10-yl}acetic acid]: the Ki is at most 5 nM.

In turn, `O=C(O)Cc1c2n(c3c(F)cccc13)CC(n1nncc1Cc1ccc(F)c(F)c1)CC2` (single isomer, unassigned) [Example 33.2, {7-[5-(3,4-difluorobenzyl)-1H-1,2,3-triazol-1-yl]-4-fluoro-6,7,8,9-tetrahydropyrido[1,2-a]-indol-10-yl}acetic acid] showed a Ki of over 100 nM.

Take `O=C(O)Cc1c2n(c3c(F)cccc13)CC(n1nncc1Cc1ccc(Cl)cc1)CC2` (single isomer, unassigned) [Example 34.1, {7-[5-(4-chlorobenzyl)-1H-1,2,3-triazol-1-yl]-4-fluoro-6,7,8,9-tetrahydropyrido[1,2-a]indol-10-yl}acetic acid]: the Ki was at most 5 nM.

Compound `O=C(O)Cc1c2n(c3c(F)cccc13)CC(n1nncc1Cc1ccc(Cl)cc1)CC2` (single isomer, unassigned) [Example 34.2, {7-[5-(4-chlorobenzyl)-1H-1,2,3-triazol-1-yl]-4-fluoro-6,7,8,9-tetrahydropyrido[1,2-a]indol-10-yl}acetic acid] returned a Ki of over 100 nM.

Regarding `Cc1nnn(C2CCc3c(CC(=O)O)c4cccc(F)c4n3C2)c1Cc1ccc(F)cc1` (single isomer, unassigned) [Example 36.1, {4-Fluoro-7-[5-(4-fluorobenzyl)-4-methyl-1H-1,2,3-triazol-1-yl]-6,7,8,9-tetrahydropyrido[1,2-a]indol-10-yl}acetic acid], the Ki was at most 5 nM.

`Cc1nnn(C2CCc3c(CC(=O)O)c4cccc(F)c4n3C2)c1Cc1ccc(F)cc1` (single isomer, unassigned) [Example 36.2, {4-Fluoro-7-[5-(4-fluorobenzyl)-4-methyl-1H-1,2,3-triazol-1-yl]-6,7,8,9-tetrahydropyrido[1,2-a]indol-10-yl}acetic acid] had a Ki of 10 to 50 nM.

For the compound `CC1C(n2nncc2Cc2ccc(F)cc2)CCc2c(CC(=O)O)c3cccc(F)c3n21` (single isomer, unassigned) [Example 38.1, {4-Fluoro-7-[5-(4-fluorobenzyl)-1H-1,2,3-triazol-1-yl]-6-methyl-6,7,8,9-tetrahydropyrido[1,2-α]indol-10-yl}acetic acid], the Ki is at most 5 nM.

With `CC1C(n2nncc2Cc2ccc(F)cc2)CCc2c(CC(=O)O)c3cccc(F)c3n21` (single isomer, unassigned) [Example 38.2, {4-Fluoro-7-[5-(4-fluorobenzyl)-1H-1,2,3-triazol-1-yl]-6-methyl-6,7,8,9-tetrahydropyrido[1,2-α]indol-10-yl}acetic acid], the Ki is over 100 nM.

For `CC(C)(c1ccc(F)cc1)c1cnnn1C1CCc2c(CC(=O)O)c3cccc(F)c3n2C1` (single isomer, unassigned) [Example 39, (4-Fluoro-7-{5-[1-(4-fluorophenyl)-1-methylethyl]-1H-1,2,3-triazol-1-yl}-6,7,8,9-tetrahydropyrido[1,2-a]indol-10-yl)acetic acid], the Ki was at most 5 nM.

`O=C(O)Cc1c2n(c3ccccc13)CC(n1nncc1Cc1ccc(F)cc1F)CC2` (single isomer, unassigned) [Example 40, {7-[5-(2,4-difluorobenzyl)-1H-1,2,3-triazol-1-yl]-6,7,8,9-tetrahydropyrido[1,2-a]-indol-10-yl}acetic acid]: the Ki was at most 5 nM.

On to `O=C(O)Cc1c2n(c3c(F)cccc13)CC(n1nncc1Cc1ccc(F)cc1F)CC2` (single isomer, unassigned) [Example 41, {7-[5-(2,4-difluorobenzyl)-1H-1,2,3-triazol-1-yl]-4-fluoro-6,7,8,9-tetrahydro-pyrido[1,2-a]indol-10-yl}acetic acid], for which the Ki is at most 5 nM.

Compound `O=C(O)Cc1c2n(c3ccccc13)CC(n1cc(Cc3ccccc3)nn1)CC2` (stereo not drawn) [Example 1, [7-(4-Benzyl-[1,2,3]triazol-1-yl)-6,7,8,9-tetrahydropyrido[1,2-α]indol-10-yl]-acetic acid] came in with a Ki of 10 to 50 nM.

As for `COc1ccc(-c2cn(C3CCc4c(CC(=O)O)c5ccccc5n4C3)nn2)cc1` (stereo not drawn) [Example 2, {7-[4-(4-Methoxy-phenyl)-[1,2,3]triazol-1-yl]-6,7,8,9-tetrahydropyrido[1,2-α]indol-10-yl}-acetic acid], the Ki fell in the range of 50 to 100 nM.

`O=C(O)Cc1c2n(c3ccccc13)CC(n1nncc1COc1c(Cl)cccc1Cl)CC2` (stereo not drawn) [Example 4, (7-{5-[(2,6-dichlorophenoxy)methyl]-1H-1,2,3-triazol-1-yl}-6,7,8,9-tetrahydropyrido[1,2-α]indol-10-yl)acetic acid]: the Ki lay in the range of 5 to 10 nM.

Regarding `O=C(O)Cc1c2n(c3c(F)cccc13)C[C@H](n1nncc1Cc1ccc(F)cc1)CC2` [Example 8.1, {(7R)-4-Fluoro-7-[5-(4-fluorobenzyl)-1H-[1,2,3]triazol-1-yl]-6,7,8,9-tetrahydropyrido[1,2-a]-indol-10-yl}-acetic acid], the Ki is at most 5 nM.

Regarding `O=C(O)Cc1c2n(c3ccccc13)CC(n1cc(-c3ccc(F)cc3)nn1)CC2` (stereo not drawn) [Example 10, {7-[4-(4-Fluoro-phenyl)-[1,2,3]triazol-1-yl]-6,7,8,9-tetrahydropyrido[1,2-α]indol-10-yl}-acetic acid], the Ki lay in the range of 10 to 50 nM.

`CS(=O)(=O)NCCCCc1cn(C2CCc3c(CC(=O)O)c4ccccc4n3C2)nn1` (stereo not drawn) [Example 11, {7-[4-(4-Methanesulfonylamino-butyl)-[1,2,3]triazol-1-yl]-6,7,8,9-tetrahydropyrido[1,2-α]indol-10-yl}-acetic acid] had a Ki of over 100 nM.

On to `CC(C)C(O)c1cn(C2CCc3c(CC(=O)O)c4ccccc4n3C2)nn1` (stereo not drawn) [Example 12, {7-[4-(1-Hydroxy-2-methyl-propyl)-[1,2,3]triazol-1-yl]-6,7,8,9-tetrahydropyrido[1,2-α]indol-10-yl}-acetic acid], for which the Ki is over 100 nM.

Consider `CC(O)(c1ccccc1)c1cn(C2CCc3c(CC(=O)O)c4ccccc4n3C2)nn1` (stereo not drawn) [Example 13, {7-[4-(1-Hydroxy-1-phenyl-ethyl)-[1,2,3]triazol-1-yl]-6,7,8,9-tetrahydropyrido[1,2-α]indol-10-yl}-acetic acid], for which the Ki was over 100 nM.

On to `O=C(O)Cc1c2n(c3ccccc13)CC(n1cc(COc3ccccc3)nn1)CC2` (stereo not drawn) [Example 14, [7-(4-Phenoxymethyl-[1,2,3]triazol-1-yl)-6,7,8,9-tetrahydropyrido[1,2-α]indol-10-yl]-acetic acid], for which the Ki lay in the range of 10 to 50 nM.

`CS(=O)(=O)c1ccc(-c2cn(C3CCc4c(CC(=O)O)c5ccccc5n4C3)nn2)cc1` (stereo not drawn) [Example 15, {7-[4-(4-Methanesulfonyl-phenyl)-[1,2,3]triazol-1-yl]-6,7,8,9-tetrahydropyrido[1,2-α]indol-10-yl}-acetic acid] had a Ki of over 100 nM.

`CC(C)(O)c1ccc(-c2cn(C3CCc4c(CC(=O)O)c5ccccc5n4C3)nn2)cc1` (stereo not drawn) [Example 16, (7-{4-[4-(1-Hydroxy-1-methyl-ethyl)-phenyl]-[1,2,3]triazol-1-yl}-6,7,8,9-tetrahydropyrido[1,2-α]indol-10-yl)-acetic acid] gave a Ki of over 100 nM.

`O=C(O)Cc1c2n(c3ccccc13)CC(n1cc(-c3ccc(C(F)(F)F)cc3)nn1)CC2` (stereo not drawn) [Example 17, {7-[4-(4-Trifluoromethyl-phenyl)-[1,2,3]triazol-1-yl]-6,7,8,9-tetrahydropyrido[1,2-α]indol-10-yl}acetic acid] returned a Ki of over 100 nM.

In turn, `O=C(O)Cc1c2n(c3ccccc13)CC(n1cc(-c3cccc4ccccc34)nn1)CC2` (stereo not drawn) [Example 18, [7-(4-Naphthalen-1-yl-[1,2,3]triazol-1-yl)-6,7,8,9-tetrahydropyrido[1,2-α]indol-10-yl]-acetic acid] had a Ki of over 100 nM.

Consider `CN(C)c1ccc(-c2cn(C3CCc4c(CC(=O)O)c5ccccc5n4C3)nn2)cc1` (stereo not drawn) [Example 19, {7-[4-(4-Dimethylamino-phenyl)-[1,2,3]triazol-1-yl]-6,7,8,9-tetrahydropyrido[1,2-α]indol-10-yl}-acetic acid], for which the Ki was over 100 nM.
